The assay has as its target T1, Human MTHFD2 (Homo sapiens, UniProt P13995).
T1 construct: residues 36-350 in Uniport ID P13995; His6 (N); made in house; host or cells: E. coli
T1 sequence (P13995 36-350): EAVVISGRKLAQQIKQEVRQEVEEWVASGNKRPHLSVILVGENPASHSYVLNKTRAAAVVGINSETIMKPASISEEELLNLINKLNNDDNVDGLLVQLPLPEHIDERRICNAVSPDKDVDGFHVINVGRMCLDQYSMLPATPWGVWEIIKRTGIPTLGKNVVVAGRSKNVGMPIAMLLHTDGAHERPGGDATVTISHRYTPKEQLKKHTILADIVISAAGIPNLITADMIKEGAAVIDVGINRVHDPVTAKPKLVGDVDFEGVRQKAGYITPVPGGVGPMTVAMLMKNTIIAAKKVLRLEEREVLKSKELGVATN
Briefly: MTHFD2 Activity Assay (dehydrogenase activity, diaphorase/resazurin coupled fluorescence). The format is biochemical. The note with it: inhibitory activity (IC50 and/or binding constant); 0.2 nM MTHFD2, 11 concentrations. The source says:
Human MTHFD2 (residues 36-350 in Uniport ID P13995) was expressed as an N-terminal His6 tagged protein and purified in E. coli using nickel capture followed by size-exclusion chromatography.
MTHFD2 dehydrogenase activity oxidizes methylene tetrahyrofolate to methenyl-tetrahydrofolate with the concomitant reduction of NAD to NADH. MTHFD2 dehydrogenase activity was followed by coupling the generation of NADH to diaphorase catalyzed […] of resazurin to fluorescent resorufin. Briefly, control (DMSO) or compound was incubated with 0.2 nM MTHFD2 for 15 minutes in 10.5 μl assay buffer containing 100 mM Hepes, pH 8.0, 5 mM MgCl2, 5 mM KH2PO4, 0.05% BSA, 0.01% Tween-20 in a 384 well Griener, low volume, black plate. 10 μl of substrate buffer containing 70 μM CH2-THF, 1 mM NAD^+, 100 μM Resazurin and 0.42 mg/ml diaphorase was then added to initiate the reaction and the reaction plate was incubated for 30 minutes. 5 μl of 250 mM EDTA was then added to each well to stop the reaction and MTHFD2 activity was quantified by measuring resorufin fluorescence emission at 598 nm following excitation at 525 nm. Activity in positive control wells containing the complete reaction mixture and DMSO alone was set to 100% while activity in negative control wells with the complete reaction mix without MTHFD2 was set to 0%. 11 concentrations of each compound were tested and the fluorescent data at each concentration was normalized to the positive and negative controls and represented as % inhibition. Median inhibitory concentration (IC50) was calculated by fitting % inhibition at each concentration to a 4 parameter logistic fit equation using Graphpad Prizm.
The compound numbers correspond to the compound numbers in Table A (i.e., the example numbers).
(The colour change of resazurin is a common sign of viable cells or microbes.)
The term IC50 denotes the point on the concentration scale where inhibition reaches its midpoint. Low readings indicate inhibition by little substance, high ones a need for much substance. `Cc1c(Cn2c(=O)c3c(nc(Nc4ccncc4)n3C)n(C)c2=O)[nH]c2ccccc12` [Example 340, 3,7-dimethyl-1-((3-methyl-1H-indol-2-yl)methyl)-8-(pyridin-4-ylamino)-1H-purine-2,6(3H,7H)-dione] gave a 50% inhibitory concentration (IC50) of 10 to 1000 nM.

For `Cn1c(=O)n(Cc2ccc(Cl)c(Cl)c2)c(=O)c2c1nc(NC1CCCC(C(=O)O)C1)n2CCC(=O)O` (stereo not drawn) [Example 341, 3-(7-(2-carboxyethyl)-1-(3,4-dichlorobenzyl)-3-methyl-2,6-dioxo-2,3,6,7-tetrahydro-1H-purin-8-ylamino)cyclohexanecarboxylic acid], the IC50 was 5000 to 10000 nM.

Compound `Cn1c(N[C@H]2CC[C@H](N)CC2)nc2c1c(=O)n(Cc1ccc(Cl)c(Cl)c1)c(=O)n2C` [Example 38, (±)-1-[(3,4-dichlorophenyl)methyl]-3,7-dimethyl-8-{[(trans)-4-aminocyclohexyl]amino}-2,3,6,7-tetrahydro-1H-purine-2,6-dione] displayed an IC50 of 1000 to 5000 nM.

For the compound `Cn1c(Nc2ccnc([C@H]3C[C@H]3C(=O)O)c2)nc2c1c(=O)n(Cc1ccc(Cl)c(Cl)c1)c(=O)n2C` (racemic) [Example 332, (±)-cis-2-(4-((1-(3,4-dichlorobenzyl)-3,7-dimethyl-2,6-dioxo-2,3,6,7-tetrahydro-1H-purin-8-yl)amino)pyridin-2-yl)cyclopropanecarboxylic acid], the IC50 is 10 to 1000 nM.

With `Cn1c(N[C@@H]2CCC[C@@H]2N)nc2c1c(=O)n(Cc1cc3c(Cl)cccc3[nH]1)c(=O)n2C` [Example 395, 8-((1R,2S)-2-aminocyclopentylamino)-1-((4-chloro-1H-indol-2-yl)methyl)-3,7-dimethyl-1H-purine-2,6(3H,7H)-dione], the 50% inhibitory concentration (IC50) was in the range of 1000 to 5000 nM.

The compound `Cn1c(Nc2ccccc2C#N)nc2c1c(=O)n(Cc1ccc(Cl)c(Cl)c1)c(=O)n2C` [Example 142, 2-(1-(3,4-dichlorobenzyl)-3,7-dimethyl-2,6-dioxo-2,3,6,7-tetrahydro-1H-purin-8-ylamino)benzonitrile] showed an IC50 of 1000 to 5000 nM.

Regarding `Cc1ccc2c(c1)cc(Cn1c(=O)c3c(ncn3C)n(C)c1=O)n2C` [Example 233, 1-((1,5-dimethyl-1H-indol-2-yl)methyl)-3,7-dimethyl-1H-purine-2,6(3H,7H)-dione], the half-maximal inhibitory concentration (IC50) was 5000 to 10000 nM.

In turn, `Cn1c(Nc2cccc(CCC(=O)O)n2)nc2c1c(=O)n(Cc1cc3c(Cl)cccc3[nH]1)c(=O)n2C` [Example 294, 3-(6-(1-((4-chloro-1H-indol-2-yl)methyl)-3,7-dimethyl-2,6-dioxo-2,3,6,7-tetrahydro-1H-purin-8-ylamino)pyridin-2-yl)propanoic acid] displayed an IC50 of 10 to 1000 nM.

The compound `Cn1c(N[C@H]2CCC(=O)NC2)nc2c1c(=O)n(Cc1ccc(Cl)c(Cl)c1)c(=O)n2C` (single isomer, unassigned) [Example 83, (5)-1-(3,4-dichlorobenzyl)-3,7-dimethyl-8-(6-oxopiperidin-3-ylamino)-1H-purine-2,6(3H,7H)-dione or (R)-1-(3,4-dichlorobenzyl)-3,7-dimethyl-8-(6-oxopiperidin-3-ylamino)-1H-purine-2,6(3H,7H)-dione] came in with a half-maximal inhibitory concentration (IC50) of 10 to 1000 nM.

Take `Cn1c(Nc2nccc(O)n2)nc2c1c(=O)n(Cc1ccc(Cl)c(Cl)c1)c(=O)n2C` [Example 138, 1-(3,4-dichlorobenzyl)-8-(4-hydroxypyrimidin-2-ylamino)-3,7-dimethyl-1H-purine-2,6(3H,7H)-dione]: the IC50 is 10 to 1000 nM.

`Cn1c(N[C@@H]2CCC[C@H](C(=O)O)C2)nc2c1c(=O)n(Cc1ccc(Cl)c(Cl)c1)c(=O)n2C` (single isomer, unassigned) [Example 184, (1S,3R)-3-(1-(3,4-dichlorobenzyl)-3,7-dimethyl-2,6-dioxo-2,3,6,7-tetrahydro-1H-purin-8-ylamino)cyclohexanecarboxylic acid or (1R,3S)-3-(1-(3,4-dichlorobenzyl)-3,7-dimethyl-2,6-dioxo-2,3,6,7-tetrahydro-1H-purin-8-ylamino)cyclohexanecarboxylic acid] showed an IC50 of 10 to 1000 nM.

Compound `Cn1c(Nc2ccncc2)nc2c1c(=O)n(Cc1ccc3c(Cl)cccc3c1)c(=O)n2C` [Example 402, 1-((5-chloronaphthalen-2-yl)methyl)-3,7-dimethyl-8-(pyridin-4-ylamino)-1H-purine-2,6(3H,7H)-dione] registered an IC50 of 10 to 1000 nM.

`Cn1c(N)nc2c1c(=O)n(Cc1cc3ccccc3[nH]1)c(=O)n2C` [Example 231, 1-((1H-indol-2-yl)methyl)-8-amino-3,7-dimethyl-1H-purine-2,6(3H,7H)-dione] registered an IC50 of 5000 to 10000 nM.

Regarding `Cc1ccc2[nH]c(Cn3c(=O)c4c(nc(N5CC(O)C5)n4C)n(C)c3=O)cc2c1` [Example 194, 8-(3-hydroxyazetidin-1-yl)-3,7-dimethyl-1-((5-methyl-1H-indol-2-yl)methyl)-1H-purine-2,6(3H,7H)-dione], the IC50 lay within 1000 to 5000 nM.

For the compound `Cn1c(N2CCC(O)CC2)nc2c1c(=O)n(Cc1cc3ccccc3[nH]1)c(=O)n2C` [Example 191, 1-((1H-indol-2-yl)methyl)-8-(4-hydroxypiperidin-1-yl)-3,7-dimethyl-1H-purine-2,6(3H,7H)-dione], the IC50 lay in the range of 10 to 1000 nM.

`Cn1c(Nc2ccnc([C@H]3C[C@@H]3C(N)=O)c2)nc2c1c(=O)n(Cc1ccc(Cl)c(Cl)c1)c(=O)n2C` (racemic) [Example 296, (±)-trans-2-(4-((1-(3,4-Dichlorobenzyl)-3,7-dimethyl-2,6-dioxo-2,3,6,7-tetrahydro-1H-purin-8-yl)amino)pyridin-2-yl)cyclopropanecarboxamide] had an IC50 of 10 to 1000 nM.

Turning to `Cn1c(C(N)C2CCC2)nc2c1c(=O)n(Cc1cc3c(Cl)cccc3[nH]1)c(=O)n2C` (stereo not drawn) [Example 443, 8-[amino(cyclobutyl)methyl]-1-[(4-chloro-1H-indol-2-yl)methyl]-3,7-dimethyl-purine-2,6-dione], the IC50 was 10 to 1000 nM.

For `Cn1c(Nc2ccnc(CCC(=O)N3CCOCC3)n2)nc2c1c(=O)n(Cc1cc3c(Cl)cccc3[nH]1)c(=O)n2C` [Example 416, 1-((4-chloro-1H-indol-2-yl)methyl)-3,7-dimethyl-8-((2-(3-morpholino-3-oxopropyl)pyrimidin-4-yl)amino)-3,7-dihydro-1H-purine-2,6-dione], the half-maximal inhibitory concentration (IC50) lay within 10 to 1000 nM.

`COc1cc(Cn2c(=O)c3c(ncn3C)n(C)c2=O)ccc1Cl` [Example 249, 1-(4-chloro-3-methoxybenzyl)-3,7-dimethyl-1H-purine-2,6(3H,7H)-dione]: the IC50 is more than 10000 nM.

On to `Cn1c(Nc2ccc(-c3ccccc3)cn2)nc2c1c(=O)n(Cc1cc3c(Cl)cccc3[nH]1)c(=O)n2C` [Example 400, 1-[(4-chloro-1H-indol-2-yl)methyl]-3,7-dimethyl-8-[(5-phenyl-2-pyridyl)amino]purine-2,6-dione], for which the half-maximal inhibitory concentration (IC50) was in the range of 1000 to 5000 nM.

In turn, `C[C@H](N)c1nc2c(c(=O)n(Cc3cc4c(Cl)cccc4[nH]3)c(=O)n2C)n1C` (single isomer, unassigned) [Example 435, (S)-8-(1-aminoethyl)-1-((4-chloro-1H-indol-2-yl)methyl)-3,7-dimethyl-1H-purine-2,6(3H,7H)-dione or (R)-8-(1-aminoethyl)-1-((4-chloro-1H-indol-2-yl)methyl)-3,7-dimethyl-1H-purine-2,6(3H,7H)-dione] displayed an IC50 of 10 to 1000 nM.
